Results from paper PMC7932537, “Quantitative profiling of protease specificity” (PLoS Computational Biology, 2021).

What was measured:
MMP-2 = target: T1, MMP-2 (Homo sapiens, UniProt P08253); experiment: K(obs) of individual phage substrates (set of 1369); assay type: biochemical; conditions: MMP2
T1 sequence (P08253 110-660): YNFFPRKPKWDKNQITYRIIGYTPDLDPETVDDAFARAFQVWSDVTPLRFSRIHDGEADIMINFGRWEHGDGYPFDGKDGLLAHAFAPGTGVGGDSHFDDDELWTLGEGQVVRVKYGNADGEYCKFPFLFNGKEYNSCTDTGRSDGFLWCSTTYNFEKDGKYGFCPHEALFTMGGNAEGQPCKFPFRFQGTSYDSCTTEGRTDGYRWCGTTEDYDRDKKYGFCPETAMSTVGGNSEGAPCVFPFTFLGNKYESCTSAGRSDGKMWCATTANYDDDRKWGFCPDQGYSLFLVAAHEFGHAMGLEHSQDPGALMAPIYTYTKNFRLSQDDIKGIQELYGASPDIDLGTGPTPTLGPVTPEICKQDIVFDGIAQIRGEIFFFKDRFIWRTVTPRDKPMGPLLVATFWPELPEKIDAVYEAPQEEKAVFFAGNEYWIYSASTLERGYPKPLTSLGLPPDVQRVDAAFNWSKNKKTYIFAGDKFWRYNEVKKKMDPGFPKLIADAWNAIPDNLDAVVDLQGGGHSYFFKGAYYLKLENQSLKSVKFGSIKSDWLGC

MMP-9 = MMP-9 (Homo sapiens, UniProt P14780); experiment: as above; assay type: biochemical; conditions: MMP9, individual phage substrates, set of 1369 peptides
[1] = individual phage substrates, set of 1369 peptides, cleavage position marked by '-' in the sequence
[2] = '-' marks the cleavage position (P1-P1')
[3] = individual phage substrate from the set of 1369 peptides, cleavage position marked by the dash in the sequence
[4] = dash in sequence marks cleavage position

MMP-9, sequence (P14780 94-707): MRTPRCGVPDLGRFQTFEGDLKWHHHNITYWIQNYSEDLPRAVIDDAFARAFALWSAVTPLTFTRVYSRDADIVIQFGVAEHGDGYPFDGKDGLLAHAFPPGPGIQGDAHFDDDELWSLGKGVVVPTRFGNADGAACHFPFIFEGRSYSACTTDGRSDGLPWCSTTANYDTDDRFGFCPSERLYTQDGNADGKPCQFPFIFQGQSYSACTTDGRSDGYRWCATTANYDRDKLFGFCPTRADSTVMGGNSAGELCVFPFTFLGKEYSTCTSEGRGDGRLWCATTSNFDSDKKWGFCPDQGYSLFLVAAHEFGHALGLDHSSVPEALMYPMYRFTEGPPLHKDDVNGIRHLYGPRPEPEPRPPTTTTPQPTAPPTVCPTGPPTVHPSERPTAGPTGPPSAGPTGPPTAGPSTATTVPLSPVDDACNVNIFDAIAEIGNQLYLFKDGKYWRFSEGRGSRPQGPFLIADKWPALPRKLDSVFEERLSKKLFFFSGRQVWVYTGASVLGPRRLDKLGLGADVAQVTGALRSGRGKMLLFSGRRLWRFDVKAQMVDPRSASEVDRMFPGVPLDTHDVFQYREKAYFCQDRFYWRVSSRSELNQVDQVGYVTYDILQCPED

Substance	Kobs (MMP-2; [1])	Kobs (MMP-9; [2])	Kobs (MMP-2; [3])	Kobs (MMP-9; [4])
SGAYH-LQQTA	0 M⁻¹ s⁻¹	762.325 M⁻¹ s⁻¹		
SGAYS-LRVTA	2157.02 M⁻¹ s⁻¹	5090.5 M⁻¹ s⁻¹		
SGFSE-LTLTA	0 M⁻¹ s⁻¹	0 M⁻¹ s⁻¹		
SGGRN-LTATA			12792.1 M⁻¹ s⁻¹	7815.03 M⁻¹ s⁻¹
SGGSG-LRMWI	484.315 M⁻¹ s⁻¹	1239.69 M⁻¹ s⁻¹		
SGHMH-MRSTA			0 M⁻¹ s⁻¹	0 M⁻¹ s⁻¹
SGIES-MYVTA	0 M⁻¹ s⁻¹	0 M⁻¹ s⁻¹		
SGINM-LTLTA	0 M⁻¹ s⁻¹	0 M⁻¹ s⁻¹		
SGIQT-MKVTA	0 M⁻¹ s⁻¹	0 M⁻¹ s⁻¹		
SGIWK-LTATA	0 M⁻¹ s⁻¹	386.839 M⁻¹ s⁻¹		
SGIYG-LRNTA	1981.53 M⁻¹ s⁻¹	2157.02 M⁻¹ s⁻¹		
SGLAK-LTVTA	0 M⁻¹ s⁻¹	0 M⁻¹ s⁻¹		
SGLAR-LSMTA			0 M⁻¹ s⁻¹	0 M⁻¹ s⁻¹
SGLAS-LRLTA	874.197 M⁻¹ s⁻¹	0 M⁻¹ s⁻¹		
SGLGE-LRGTA	12792.1 M⁻¹ s⁻¹	3850.82 M⁻¹ s⁻¹		
SGLGM-LATTA	418.952 M⁻¹ s⁻¹	84.609 M⁻¹ s⁻¹		
SGLLN-MYITA	0 M⁻¹ s⁻¹	0 M⁻¹ s⁻¹		
SGLQN-LMLTA	113.394 M⁻¹ s⁻¹	113.394 M⁻¹ s⁻¹		
SGLWT-LMATA	0 M⁻¹ s⁻¹	0 M⁻¹ s⁻¹		
SGLYG-LTLTA	762.325 M⁻¹ s⁻¹	201.585 M⁻¹ s⁻¹		
SGMLS-LVITA	0 M⁻¹ s⁻¹	0 M⁻¹ s⁻¹		
SGMSS-LKFTA	323.705 M⁻¹ s⁻¹	0 M⁻¹ s⁻¹		
SGNLA-LKQTA	0 M⁻¹ s⁻¹	0 M⁻¹ s⁻¹		
SGPAA-LQSTA			8321.48 M⁻¹ s⁻¹	6688.74 M⁻¹ s⁻¹
SGPAG-MHSTA	12792.1 M⁻¹ s⁻¹	7015.91 M⁻¹ s⁻¹		
SGPAP-LVLTA	12792.1 M⁻¹ s⁻¹	6688.74 M⁻¹ s⁻¹		

Substance	Kobs (MMP-2; [1])	Kobs (MMP-9; [2])	Kobs (MMP-2; [3])	Kobs (MMP-9; [4])
SGPHL-LIRTA	0 M⁻¹ s⁻¹	386.839 M⁻¹ s⁻¹		
SGPHS-MKLTA	0 M⁻¹ s⁻¹	323.705 M⁻¹ s⁻¹		
SGPHW-LNATA	3741.87 M⁻¹ s⁻¹	10866.7 M⁻¹ s⁻¹		
SGPIP-IRKTA	12792.1 M⁻¹ s⁻¹	12792.1 M⁻¹ s⁻¹		
SGPKQ-LTRTA	0 M⁻¹ s⁻¹	1465.65 M⁻¹ s⁻¹		
SGPLA-STVTA	0 M⁻¹ s⁻¹	3741.87 M⁻¹ s⁻¹		
SGPLA-VRTTA	12792.1 M⁻¹ s⁻¹	12792.1 M⁻¹ s⁻¹		
SGPLG-IFYTA	12792.1 M⁻¹ s⁻¹	12792.1 M⁻¹ s⁻¹		
SGPLS-ILNTA	8941.32 M⁻¹ s⁻¹	12792.1 M⁻¹ s⁻¹		
SGPLS-LRSTA	12792.1 M⁻¹ s⁻¹	12792.1 M⁻¹ s⁻¹		
SGPLS-QSTTA	1561.44 M⁻¹ s⁻¹	7815.03 M⁻¹ s⁻¹		
SGPLT-LNSTA	2476.66 M⁻¹ s⁻¹	10866.7 M⁻¹ s⁻¹		
SGPMA-LKSTA			8941.32 M⁻¹ s⁻¹	8321.48 M⁻¹ s⁻¹
SGPMG-MRNTA	5667.28 M⁻¹ s⁻¹	5889.62 M⁻¹ s⁻¹		
SGPMH-LRSTA	8321.48 M⁻¹ s⁻¹	10866.7 M⁻¹ s⁻¹		
SGPMS-LLDTA			2996.69 M⁻¹ s⁻¹	8941.32 M⁻¹ s⁻¹
SGPMS-LRMTA	7386.83 M⁻¹ s⁻¹	12792.1 M⁻¹ s⁻¹		
SGPQA-VVKTA			1071.29 M⁻¹ s⁻¹	517.582 M⁻¹ s⁻¹
SGPRS-LSQTA			12792.1 M⁻¹ s⁻¹	8941.32 M⁻¹ s⁻¹
SGPSD-LHATA	12792.1 M⁻¹ s⁻¹	12792.1 M⁻¹ s⁻¹		
SGPSN-MLRTA	5889.62 M⁻¹ s⁻¹	3964.21 M⁻¹ s⁻¹		
SGPSR-ILMTA			1071.29 M⁻¹ s⁻¹	1513.13 M⁻¹ s⁻¹
SGPSS-LLGTA	12792.1 M⁻¹ s⁻¹	12792.1 M⁻¹ s⁻¹		
SGPVS-LRMTA			12792.1 M⁻¹ s⁻¹	12792.1 M⁻¹ s⁻¹
SGPWG-LLETA	2409.72 M⁻¹ s⁻¹	12792.1 M⁻¹ s⁻¹		
SGPYN-LRGTA	12792.1 M⁻¹ s⁻¹	12792.1 M⁻¹ s⁻¹		

Substance	Kobs (MMP-2; [1])	Kobs (MMP-9; [2])	Kobs (MMP-2; [3])	Kobs (MMP-9; [4])
SGSAR-LTLTA			0 M⁻¹ s⁻¹	0 M⁻¹ s⁻¹
SGSFN-LTMTA	0 M⁻¹ s⁻¹	418.952 M⁻¹ s⁻¹		
SGSWS-LILTA	0 M⁻¹ s⁻¹	0 M⁻¹ s⁻¹		
SGSYP-LTRTA			0 M⁻¹ s⁻¹	0 M⁻¹ s⁻¹
SGTWP-LSGTA	12792.1 M⁻¹ s⁻¹	8941.32 M⁻¹ s⁻¹		
SGTWR-LMLTA			0 M⁻¹ s⁻¹	27.918 M⁻¹ s⁻¹
SGVAP-LILTA	0 M⁻¹ s⁻¹	142.481 M⁻¹ s⁻¹		
SGVAS-LMGTA			12792.1 M⁻¹ s⁻¹	8941.32 M⁻¹ s⁻¹
SGVFN-LAFTA	912.511 M⁻¹ s⁻¹	201.585 M⁻¹ s⁻¹		
SGVFS-LKLTA			654.784 M⁻¹ s⁻¹	551.253 M⁻¹ s⁻¹
SGVGA-LNKTA			836.403 M⁻¹ s⁻¹	56.119 M⁻¹ s⁻¹
SGVGM-LYNTA			1373.05 M⁻¹ s⁻¹	0 M⁻¹ s⁻¹
SGVHR-LSYTA			0 M⁻¹ s⁻¹	0 M⁻¹ s⁻¹
SGVKF-LFNTA			0 M⁻¹ s⁻¹	113.394 M⁻¹ s⁻¹
SGVLS-LRYTA	1154.21 M⁻¹ s⁻¹	2837.92 M⁻¹ s⁻¹		
SGVMK-LQKTA			0 M⁻¹ s⁻¹	0 M⁻¹ s⁻¹
SGVMR-LVVTA			0 M⁻¹ s⁻¹	171.876 M⁻¹ s⁻¹
SGVMY-LQVTA			0 M⁻¹ s⁻¹	654.784 M⁻¹ s⁻¹
SGVNL-LLMTA	27.918 M⁻¹ s⁻¹	0 M⁻¹ s⁻¹		
SGVNR-ISLTA			113.394 M⁻¹ s⁻¹	0 M⁻¹ s⁻¹
SGVNS-LFTTA			323.705 M⁻¹ s⁻¹	0 M⁻¹ s⁻¹
SGVNS-LRRTA	726.013 M⁻¹ s⁻¹	0 M⁻¹ s⁻¹		
SGVRA-LISTA	12792.1 M⁻¹ s⁻¹	12792.1 M⁻¹ s⁻¹		
SGVRF-MRQTA			231.616 M⁻¹ s⁻¹	1513.13 M⁻¹ s⁻¹
SGVRM-LRRTA	799.117 M⁻¹ s⁻¹	2157.02 M⁻¹ s⁻¹		
SGVWG-IRYTA	654.784 M⁻¹ s⁻¹	1925.41 M⁻¹ s⁻¹		

Substance	Kobs (MMP-2; [1])	Kobs (MMP-9; [2])	Kobs (MMP-2; [3])	Kobs (MMP-9; [4])
SGVWP-LVKTA			0 M⁻¹ s⁻¹	0 M⁻¹ s⁻¹
SGVYR-LELTA			113.394 M⁻¹ s⁻¹	0 M⁻¹ s⁻¹
SGWAS-MRLTA	0 M⁻¹ s⁻¹	142.481 M⁻¹ s⁻¹		
SGWLN-LRSTA			1154.21 M⁻¹ s⁻¹	726.013 M⁻¹ s⁻¹
SGYAG-LRQTA	231.616 M⁻¹ s⁻¹	0 M⁻¹ s⁻¹		
SGYAH-MRVTA	0 M⁻¹ s⁻¹	0 M⁻¹ s⁻¹		
SGYLP-LLYTA	1196.62 M⁻¹ s⁻¹	12792.1 M⁻¹ s⁻¹		
SGYMH-IKVTA	0 M⁻¹ s⁻¹	0 M⁻¹ s⁻¹		
SGYRF-MTLTA	0 M⁻¹ s⁻¹	0 M⁻¹ s⁻¹		
SIPNA-LTASG	12792.1 M⁻¹ s⁻¹	9740.44 M⁻¹ s⁻¹		
SKIRF-LTASG			5269.78 M⁻¹ s⁻¹	9740.44 M⁻¹ s⁻¹
SKVLF-LTASG	3079.62 M⁻¹ s⁻¹	3079.62 M⁻¹ s⁻¹		
SLPAH-ITASG			12792.1 M⁻¹ s⁻¹	5461.43 M⁻¹ s⁻¹
SLYRA-LTASG	7386.83 M⁻¹ s⁻¹	5667.28 M⁻¹ s⁻¹		
SMPRM-LTASG	12792.1 M⁻¹ s⁻¹	10866.7 M⁻¹ s⁻¹		
SPAHG-LTASG			10866.7 M⁻¹ s⁻¹	1239.69 M⁻¹ s⁻¹
SPALD-MTASG			0 M⁻¹ s⁻¹	231.616 M⁻¹ s⁻¹
SRPLN-LTASG			6688.74 M⁻¹ s⁻¹	7386.83 M⁻¹ s⁻¹
SRPRM-LTASG			7815.03 M⁻¹ s⁻¹	8321.48 M⁻¹ s⁻¹
SRVLP-LTASG			4613.14 M⁻¹ s⁻¹	1711.63 M⁻¹ s⁻¹
SRVRN-LTASG	8321.48 M⁻¹ s⁻¹	4470.66 M⁻¹ s⁻¹		
SSPLY-LTASG	12792.1 M⁻¹ s⁻¹	12792.1 M⁻¹ s⁻¹		
SSYAH-LTASG	5269.78 M⁻¹ s⁻¹	0 M⁻¹ s⁻¹		
STVRN-LTASG	12792.1 M⁻¹ s⁻¹	4470.66 M⁻¹ s⁻¹		
SVARN-LTASG	10866.7 M⁻¹ s⁻¹	4205.91 M⁻¹ s⁻¹		
SWGLA-LTASG	619.843 M⁻¹ s⁻¹	690.17 M⁻¹ s⁻¹		
